Measurements taken from publication PMC6133092, “Synthesis of 2-alkylthio-N-(quinazolin-2-yl)benzenesulfonamide derivatives: anticancer activity, QSAR studies, and metabolic stability” (Monatshefte Fur Chemie, 2018).

Legend:
HCT-116, HeLa, MCF-7 = assay: MTT assays, mean over three tested cell lines; type: cell-based; conditions: Homo sapiens, mean of HCT-116, HeLa, read-out: mean IC50 against three tested cell lines
Description: All of the newly synthesized compounds 9–24 were evaluated for their effects on cell viability in three human cancer cell lines: HCT-116 (colon cancer), HeLa (cervical cancer), and MCF-7 (breast cancer). Cisplatin was used as reference drug. […] Considering the activity of derivatives 9–12, 15, 17, 18, and 21–24, it can be noticed that phenyl group as R^3 bring an increase of cytotoxicity in comparison with methyl in place of R^3. However, this impact seems to be the most important for compounds with the bulky group in R^1 and generally, it is less for a set of derivatives with methyl group substituted in R^1 (9–12).
Cell viability was determined using the MTT (3-(4,5-dimethylthiazol-2-yl)-2,5-diphenyltetrazolium bromide) assay. Cells were seeded in 96-well plates at a density of 5 × 10^3 cells/well and treated for 72 h with the examined compounds in the concentration range 1–100 μM (1, 10, 25, 50, and 100 μM). Following treatment, MTT (0.5 mg/cm^3) was added to the medium and cells were further incubated for 2 h at 37 °C. Cells were lysed with DMSO and the absorbance of the formazan solution was measured at 550 nm with a plate reader (Victor, 1420 multilabel counter). […] The experiment was performed in triplicate. Values are expressed as the mean ± SD of at least three independent experiments.

RPMI-8226 = assay: NCI-60 single dose screen, RPMI-8226; type: cell-based; conditions: Homo sapiens, RPMI-8226, Leukemia; single concentration 10^−5 M; read-out: IGP (inhibition growth percent) RPMI-8226
Description: (§1) Aside from above, compounds 9–14 and 17–24 were also submitted to National Cancer Institute and evaluated for the cytotoxic effects toward 60 cell lines at a single dose of 10 μM (Table 2). […] As it was summarized in Table 2, leukemia RPMI-8226 and NSCLC A549/ATCC were most sensitive to compounds 18, 22, and 24. These derivatives in 10 μM concentration inhibited the growth of approximately 50% cells belonging to the above mention cell lines.
(§2) Cytotoxicity evaluation of compounds 9–14 and 17–24 was performed at the National Cancer Institute according to NCI-60 DTP human tumor cell line screen procedure.

A549/ATCC = assay: NCI-60 single dose screen, A549/ATCC; type: cell-based; conditions: Homo sapiens, A549, NSCLC; single concentration 10^−5 M; read-out: IGP (inhibition growth percent) A549/ATCC
Description: as §1, §2

PC-3 = assay: NCI-60 single dose screen, PC-3; type: cell-based; conditions: Homo sapiens, Prostate cancer, single concentration 10^−5 M, read-out: IGP (inhibition growth percent) PC-3
Description: as §1, §2

MCF-7 = assay: NCI-60 single dose screen, MCF-7; type: cell-based; conditions: Homo sapiens, MCF7; Breast cancer; single concentration 10^−5 M; read-out: IGP (inhibition growth percent) MCF-7
Description: as §1, §2

[1] = Metabolic stability in human liver microsomes with NADPH; type: in vitro ADME; conditions: pooled human liver microsomes, pH 7.4, human liver microsomes 0.5 mg/cm^3, NADPH 1 mM, 10 μM compound, 37 °C, read-out: in vitro metabolic half-life t1/2
Description: Selected derivatives were submitted to metabolic stability study to assess their ability to remain unchanged in the presence of human metabolic enzymes. Human liver microsomes were used as they are a rich source of all common CYP isoenzymes. In vitro incubations were performed in the presence of NADPH as a cofactor and the disappearance of a derivative was followed using LC–MS technique. The in vitro metabolic half-life values are gathered in Fig. 3.
Stock solutions of studied compounds were prepared at concentration of 10 mM in DMSO. […] Incubation mixture contained 10 μM of a studied derivative, 1 mM of NADPH (Sigma-Aldrich) and 0.5 mg/cm^3 of pooled human liver microsomes (HLM, Sigma-Aldrich) in potassium phosphate buffer (0.1 M, pH 7.4). Incubation was carried out in thermostat at 37 °C and started by addition of studied compound. 50 mm^3 samples were taken at starting point and after 5, 15, 30, 45, and 60 min. Enzymatic reaction was terminated by the addition of the equal volume of ice-cold acetonitrile. Incubations were performed in triplicates, the average t1/2 and standard deviation was calculated. Control incubations were performed without NADPH to assess chemical instability. After collection, samples were immediately centrifuged (10 min, 10,000 rpm) and resulted supernatant was directly analyzed or kept in − 80 °C until LC–MS analysis. Natural logarithm of a compound over IS peak area ratio was plotted versus incubation time. Metabolic half-time (t1/2) was calculated from the slope of the linear regression.
LC–MS analysis was performed on an Agilent 1260 system coupled to SingleQuad 6120 mass spectrometer (Agilent Technologies, Santa Clara, CA, USA). Poroshell EC-C18 (2.1 mm × 150 mm, 2.7 μm, Agilent Technologies, Santa Clara, CA, USA) was used in reversed-phase mode with gradient elution starting with 5% of phase A (10 mM ammonium formate in water) and 95% of phase B (10 mM ammonium formate in acetonitrile–water mixture, 95:5 v/v). […] Total analysis time was 15 min at 40 °C, flow rate was 1 cm^3/min and the injection volume was 5 mm^3. The mass spectrometer was equipped with electrospray ion source and operated in positive ionization. Mass analyzer was set individually to each compound to detect [M+H]^+ protonated molecule. MSD parameters of the ESI source were as follows: nebulizer pressure 35 psig (N2), drying gas […] (N2), drying gas temperature 300 °C, capillary voltage 3 kV, fragmentor voltage 150 V.

SMILES | IC50 (HCT-116, HeLa, MCF-7) [µM] | inhibition at 10 µM (RPMI-8226) [%] | inhibition at 10 µM (A549/ATCC) [%] | inhibition at 10 µM (PC-3) [%] | inhibition at 10 µM (MCF-7) [%] | half-life at 10 μM [1] [min]
O=C(Nc1ccccc1)c1cc(S(=O)(=O)Nc2nc(-c3ccccc3)c3ccccc3n2)c(SCc2ccccc2)cc1Cl [Compound 18, 2-Benzylthio-4-chloro-5-phenylcarbamoyl-N-(4-phenylquinazolin-2-yl)benzenesulfonamide] | 44.7 | ~50 | ~50 | 24 | 14 | 11.2
O=C(Nc1ccc(Cl)cc1)c1cc(S(=O)(=O)Nc2nc(-c3ccccc3)c3ccccc3n2)c(SCc2ccccc2)cc1Cl [Compound 22, 2-Benzylthio-4-chloro-5-(4-chlorophenylcarbamoyl)-N-(4-phenylquinazolin-2-yl)benzenesulfonamide] | 44.7 | ~50 | ~50 | 44 | 20 | 67.2
Cc1ccc(NC(=O)c2cc(S(=O)(=O)Nc3nc(-c4ccccc4)c4ccccc4n3)c(SCc3ccccc3)cc2Cl)cc1 [Compound 24, 2-Benzylthio-4-chloro-5-(4-methylphenylcarbamoyl)-N-(4-phenylquinazolin-2-yl)benzenesulfonamide] | 45.7 | ~50 | ~50 | 49 | 23 | 42.3
